Experimental data as given in ChEMBL document CHEMBL3046027, “In vitro and in vivo antifungal activity of synthetic pure isothiocyanates against Sclerotinia sclerotiorum” (Pest Manag Sci, 2011).
pEC50: −log10 of the molar value.

What was measured:
[1] = system: Sclerotinia sclerotiorum; test: Fungistatic activity in Sclerotinia sclerotiorum assessed as inhibition of carpogenic germination in volatile phase at 42 umol/l measured at 20 degC after 5 days relative to control; assay type: functional; conditions: 120 h
[2] = system: Sclerotinia sclerotiorum; test: Fungistatic activity in Sclerotinia sclerotiorum assessed as inhibition of carpogenic germination in volatile phase at 84 umol/l measured at 20 degC after 5 days relative to control; assay type: functional; conditions: AT84, 120 h
[3] = system: Sclerotinia sclerotiorum; test: Fungistatic activity in Sclerotinia sclerotiorum assessed as inhibition of mycelial growth in contact phase measured at 20 degC after 5 days; assay type: functional, organism-based; conditions: 120 h
[4] = system: Sclerotinia sclerotiorum; test: Antifungal activity against Sclerotinia sclerotiorum assessed as inhibition of germination in volatile phase at 422 umol/l measured at 20 degC after 5 days; assay type: functional; conditions: 120 h
[5] = system: Sclerotinia sclerotiorum; test: Antifungal activity against Sclerotinia sclerotiorum assessed as inhibition of mycelial growth in volatile phase at 422 umol/l measured at 20 degC after 5 days; assay type: functional; conditions: 120 h, read-out: GI
[6] = system: Sclerotinia sclerotiorum; test: Fungistatic activity in Sclerotinia sclerotiorum assessed as inhibition of mycelial growth in contact phase at 1688 umol/l measured at 20 degC after 5 days relative to control; assay type: functional; conditions: 120 h, read-out: GI
[7] = system: Sclerotinia sclerotiorum; test: Antifungal activity against Sclerotinia sclerotiorum assessed as inhibition of mycelial growth in volatile phase at 42 umol/l measured at 20 degC after 5 days; assay type: functional; conditions: 120 h, read-out: GI
[8] = system: Sclerotinia sclerotiorum; test: Antifungal activity against Sclerotinia sclerotiorum assessed as inhibition of mycelial growth in contact phase at 1688 umol/l measured at 20 degC after 5 days; assay type: functional; conditions: 120 h, read-out: GI
[9] = system: Sclerotinia sclerotiorum; test: Fungistatic activity in Sclerotinia sclerotiorum assessed as inhibition of mycelial growth in volatile phase measured at 20 degC after 5 days; assay type: functional, organism-based; conditions: 120 h
[10] = system: Sclerotinia sclerotiorum; test: In vivo antifungal Sclerotinia sclerotiorum in Pepper (Capsicum annuum L. cv. Sera Demre) assessed as inhibition of mycelial growth in volatile phase at 168 umol/L measured after 10 to 14 weeks; assay type: functional
[11] = system: Sclerotinia sclerotiorum; test: Antifungal activity against Sclerotinia sclerotiorum assessed as inhibition of germination in volatile phase at 42 umol/l measured at 20 degC after 5 days; assay type: functional; conditions: 120 h
[12] = system: Sclerotinia sclerotiorum; test: In vivo antifungal Sclerotinia sclerotiorum in Pepper (Capsicum annuum L. cv. Sera Demre) assessed as inhibition of mycelial growth in volatile phase at 84 umol/L measured after 10 to 14 weeks; assay type: functional
[13] = system: Sclerotinia sclerotiorum; test: Fungistatic activity in Sclerotinia sclerotiorum assessed as inhibition of carpogenic germination in volatile phase at 422 umol/l measured at 20 degC after 5 days relative to control; assay type: functional; conditions: 120 h
[14] = system: Sclerotinia sclerotiorum; test: Antifungal activity against Sclerotinia sclerotiorum assessed as inhibition of mycelial growth in contact phase at 591 umol/l measured at 20 degC after 5 days; assay type: functional; conditions: 120 h, read-out: GI
[15] = system: Sclerotinia sclerotiorum; test: Fungistatic activity in Sclerotinia sclerotiorum assessed as inhibition of carpogenic germination in volatile phase at 840 umol/l measured at 20 degC after 5 days relative to control; assay type: functional; conditions: 120 h
[16] = system: Sclerotinia sclerotiorum; test: Antifungal activity against Sclerotinia sclerotiorum assessed as inhibition of mycelial growth in contact phase at 844 umol/l measured at 20 degC after 5 days; assay type: functional; conditions: 120 h, read-out: GI
[17] = system: Sclerotinia sclerotiorum; test: Antifungal activity against Sclerotinia sclerotiorum assessed as inhibition of mycelial growth in contact phase at 2531 umol/l measured at 20 degC after 5 days; assay type: functional; conditions: 120 h, read-out: GI
[18] = system: Sclerotinia sclerotiorum; test: Antifungal activity against Sclerotinia sclerotiorum assessed as inhibition of germination in volatile phase at 253 umol/l measured at 20 degC after 5 days; assay type: functional; conditions: 120 h
[19] = system: Sclerotinia sclerotiorum; test: Fungistatic activity in Sclerotinia sclerotiorum assessed as viability in volatile phase at 844 umol/l measured at 20 degC after 5 days relative to control; assay type: functional; conditions: 120 h, read-out: GI
[20] = system: Sclerotinia sclerotiorum; test: Fungitoxic activity in Sclerotinia sclerotiorum assessed as inhibition of mycelial growth in contact phase at 2531 umol/l measured at 20 degC after 5 days relative to control; assay type: functional; conditions: 120 h, read-out: GI
[21] = system: Sclerotinia sclerotiorum; test: Fungistatic activity in Sclerotinia sclerotiorum assessed as inhibition of mycelial growth in volatile phase at 588 umol/l measured at 20 degC after 5 days relative to control; assay type: functional; conditions: 120 h, read-out: GI
[22] = system: Sclerotinia sclerotiorum; test: Antifungal activity against Sclerotinia sclerotiorum assessed as inhibition of mycelial growth in volatile phase at 840 umol/l measured at 20 degC after 5 days; assay type: functional; conditions: 120 h, read-out: GI
[23] = system: Sclerotinia sclerotiorum; test: Antifungal activity against Sclerotinia sclerotiorum assessed as inhibition of germination in volatile phase at 84 umol/l measured at 20 degC after 5 days; assay type: functional; conditions: AT84, 120 h
[24] = system: Sclerotinia sclerotiorum; test: Antifungal activity against Sclerotinia sclerotiorum assessed as inhibition of germination in volatile phase at 844 umol/l measured at 20 degC after 5 days; assay type: functional; conditions: 120 h
[25] = system: Sclerotinia sclerotiorum; test: Antifungal activity against Sclerotinia sclerotiorum assessed as inhibition of mycelial growth in volatile phase at 588 umol/l measured at 20 degC after 5 days; assay type: functional; conditions: 120 h, read-out: GI
[26] = system: Sclerotinia sclerotiorum; test: Fungistatic activity in Sclerotinia sclerotiorum assessed as sclerotial viability measured at 20 degC after 5 days; assay type: functional, organism-based; conditions: 120 h
[27] = system: Sclerotinia sclerotiorum; test: Antifungal activity against Sclerotinia sclerotiorum assessed as inhibition of mycelial growth in contact phase at 759 umol/l measured at 20 degC after 5 days; assay type: functional; conditions: 120 h, read-out: GI
[28] = system: Sclerotinia sclerotiorum; test: Antifungal activity against Sclerotinia sclerotiorum assessed as inhibition of mycelial growth in volatile phase at 84 umol/l measured at 20 degC after 5 days; assay type: functional; conditions: 120 h, read-out: GI

With `CCCCN=C=S` [BUTYL ISOTHIOCYANATE] the inhibition at 42 µM [1] was 77.5%, the inhibition at 84 µM [2] was 80% and the pEC50 [3] was 3.03. It also gave an inhibition at 422 µM [4] of 46.7%, an inhibition of growth at 422 µM [5] of 70.3% and an inhibition of growth at 1688 µM [6] of 100%. The inhibition of growth at 42 µM [7] was 22.8%, the inhibition of growth at 1688 µM [8] was 100% and the pEC50 [9] was 4.06. It also gave an inhibition in vivo at 168 µM [10] of 63.3%, an inhibition at 42 µM [11] of 0% and an inhibition in vivo at 84 µM [12] of 31.7%. The inhibition at 422 µM [13] was 82.5%, the inhibition of growth at 591 µM [14] was 5% and the inhibition at 840 µM [15] was 92.5%. The inhibition of growth at 844 µM [16] was 29.2%, the inhibition of growth at 2531 µM [17] was 100% and the inhibition at 253 µM [18] was 13.3%. The inhibition of growth at 844 µM [19] was 100%, the inhibition of growth at 2531 µM [20] was 100% and the inhibition of growth at 588 µM [21] was 100%. For the same molecule, the inhibition of growth at 840 µM [22] was 100%, the inhibition at 84 µM [23] was 0% and the inhibition at 844 µM [24] was 100%. The inhibition of growth at 588 µM [25] was 72.3%, the pEC50 [26] was 3.39 and the inhibition of growth at 759 µM [27] was 11.7%. The inhibition of growth at 84 µM [28] was 48.7%.
